We go through one compound from PMC9587079, “Bioavailability of inhaled or ingested PFOA adsorbed to house dust” (Environmental Science and Pollution Research International, 2022).

A short description of series [1]: Sorption of PFOA on house dust in near saturated vapor. The format is physicochemical. The following applies: more than 3 weeks. The method, then: To achieve a sufficient concentration of PFOA on the house dust, a saturated vapor concentration procedure was created to adsorb/absorb PFOA on the house dust. This was done to ensure detectability in the tissue samples. Ten grams of solid pure perfluorooctanoic acid was placed in a glass jar bottle, capped with a lid, shaken and stored at room temperature (25 ± 0.1 °C) to allow vaporization and pre-equilibration of PFOA on the walls of the glass jars. Following equilibration of PFOA in the air and on walls of jars, a portion of 5 ± 0.03 g dust was placed in a polypropylene (PP) round plate inside each of four jars. These were capped and kept under the controlled room temperature and atmospheric pressure over time, mimicking a residential indoor environment, but with a saturated vapor of PFOA. Repeated samples of dust were withdrawn from the jars over time and analyzed for the PFOA content. This procedure was repeated over time for up to 6 weeks until a stable equilibrium concentration of PFOA was attained adsorbed to the dust. […]
During the adsorption process, the concentration of PFOA adsorbed to the dust was periodically measured after a rotatory mixing of dust samples with a tube rotator or 24 h prior to the extraction procedures and instrumental analysis. […]

The next series deals with albumin in serum. Details: method as in Han et al. [2003]. The following applies: ref Han et al. [2003]; cited from earlier work.
The nature of series [2]: Vapor concentration of PFOA at outlet of vapor generation chamber. The format is physicochemical. The following applies: room temperature, after 24 h. The method, then:
The gas phase of PFOA was collected with OSHA Versatile Sampling (OVS) tubes with XAD-2 resin (SKC). Samples were collected at a flowrate of 0.04 L/min using vacuum sampling pumps. Collection times were set for 5 min typically for a 200 mL air sample. PFOA from the OVS sampler was extracted prior to analysis into two fractions with each fraction placed into individual PP tubes. Fraction A consisted of the glass or quartz fiber filter and first section of XAD resin beads and the first polyurethane foam (PUF) filter. Fraction B consisted of the second section of XAD resin beads and the back PUF filter. All samples were spiked with 50 μL of 1 μg/mL C13 solution, the surrogate standard. Each section was placed in PP tube to which 5 mL of HPLC-grade methanol was added. The tube was shaken for 60 min on a mechanical flatbed shaker set at ∼2 cycles per second. Approximately 4.5 mL of each extract was transferred to a pre-baked amber glass vial by filtering through a Gelman GHP Acrodisc (Pall Gelman Laboratory, Ann Arbor, MI, USA.). Each extract of consisting of 200 μL was transferred to an autosampler vial with PP insert. […]
The vapor concentration of PFOA (Cpfoa) measured at the outlet of the vapor pressure generation chamber is described in detail in Supplementary Information and shown in Fig. S1. […]

With `O=C(O)C(F)(F)C(F)(F)C(F)(F)C(F)(F)C(F)(F)C(F)(F)C(F)(F)F` [PFOA, Perfluorooctanoic acid], the “Steady state concentration of PFOA on house dust” value in series [1] turned out to be 0.335 g/g coated dust. Also, the “PFOA bound to albumin in serum” value with albumin in serum is given as “more than 90%”. Moreover, the “Stable (saturation) vapor concentration of PFOA” value in series [2] amounted to 1.37e-05 µg/L.
